Key:
Bcr-Abl = target: T1, Bcr-Abl (Homo sapiens, UniProt P00519); test: Test for activity against Bcr-Abl (phosphorylation ELISA in 32D-bcr/abl cells); assay type: cell-based, murine; details: 32D cells transfected with p210 Bcr-Abl; ELISA of Bcr-Abl phosphorylation; read-out: bcrabl32DcEL/ Average<32Dp210IC50 [umol l−1]>
T1 construct: host or cells: murine myeloid progenitor cell line 32Dcl3 (32D-bcr/abl); the other entry of the earlier key: BCR (P11274, Breakpoint cluster region protein)
Experimental: Test for activity against Bcr-Abl. The murine myeloid progenitor cell line 32Dcl3 transfected with the p210 Bcr-Abl expression vector pGDp210Bcr/Abl (32D-bcr/abl) was obtained from J. Griffin (Dana Faber Cancer Institute, Boston, Mass., USA). The cells express the fusion Bcr-Abl protein with a constitutively active Abl kinase and proliferate growth factor independent. The cells are expanded in RPMI 1640 (AMIMED), 10% fetal calf serum, 2 mM glutamine (Gibco) (“complete medium”), and a working stock is prepared by freezing aliquots of 2×10^6 cells per vial in freezing medium (95% FCS, 5% DMSO (SIGMA)). After thawing, the cells are used during maximally 10-12 passages for the experiments.
For cellular assays, compounds are dissolved in DMSO and diluted with complete medium to yield a starting concentration of 10 μM followed by preparation of serial 3-fold dilutions in complete medium. 200,000 32D-Bcr/Abl cells in 50 μL complete medium are seeded per well in 96 well round bottom tissue culture plates. 50 μL per well of serial 3-fold dilutions of the test compound are added to the cells in triplicates. Untreated cells are used as control. The compound is incubated together with the cells for 90 min at 37° C., 5% CO2, followed by centrifugation of the tissue culture plates at 1300 rpm (Beckman GPR centrifuge) and removal of the supernatants by careful aspiration taking care not to remove any of the pelleted cells. The cell pellets are lysed by addition of 150 μL lysis buffer (50 mM Tris/HCl, pH 7.4, 150 mM sodium chloride, 5 mM EDTA, 1 mM EGTA, 1% NP-40, 2 mM sodium ortho-vanadate, 1 mM PMSF, 50 μg/mL aprotinin and 80 μg/mL leupeptin) and either used immediately for the ELISA or stored frozen in the plates at −20° C. until usage.
Black ELISA plates (Packard HTRF-96 black plates) are precoated over night at 4° C. with 50 ng/well of the rabbit polyclonal anti-abl-SH3 domain Ab 06-466 from Upstate in 50 μL PBS. After washing 3 times with 200 μL/well PBS containing 0.05% Tween20 (PBST) and 0.5% TopBlock (Juro), residual protein binding sites are blocked with 200 μL/well PBST, 3% TopBlock for 4 h at room temperature followed by incubation with 50 μL lysates of untreated or compound-treated cells (20 μg total protein per well) for 3-4 h at 4° C. After 3 washings, 50 μL/well anti-phosphotyrosine Ab PY20(AP) labeled with alkaline phosphatase (Zymed) diluted to 0.2 μg/mL in blocking buffer is added and incubated over night (4° C.). For all incubation steps the plates are covered with plate sealers (Costar). Finally, the plates are washed another three times with washing buffer and once with deionized water before addition of 90 μL/well of the AP-substrate CDPStar RTU with Emerald II. The plates, now sealed with Packard TopSeal™-A plate sealers, are incubated for 45 min at room temperature in the dark and luminescence is quantified by measuring counts per second (CPS) with a Packard Top Count Microplate Scintillation Counter (Top Count). The difference between the ELISA-readout (CPS) obtained for with the lysates of the untreated 32D-Bcr/Abl cells and the readout for the assay-background (all components, but without cell lysate) is calculated and taken as 100% reflecting the constitutively phosphorylated Bcr-Abl protein present in these cells. The activity of the compound on the Bcr-Abl kinase activity is expressed as percent reduction of the Bcr-Abl phosphorylation. The values for the IC50 and IC90 are determined from the dose response curves by graphical extrapolation.

c-Abl = target: T2, c-Abl (Homo sapiens, UniProt P00519); test: Test for activity against c-Abl protein tyrosine kinase (filter binding assay); assay type: biochemical
T2 construct: The His-tagged kinase domain of c-Abl is cloned and expressed in the baculovirus/Sf9 system; His; made in house; host or cells: baculovirus/Sf9
T2 sequence (P00519 242-493 limits assumed): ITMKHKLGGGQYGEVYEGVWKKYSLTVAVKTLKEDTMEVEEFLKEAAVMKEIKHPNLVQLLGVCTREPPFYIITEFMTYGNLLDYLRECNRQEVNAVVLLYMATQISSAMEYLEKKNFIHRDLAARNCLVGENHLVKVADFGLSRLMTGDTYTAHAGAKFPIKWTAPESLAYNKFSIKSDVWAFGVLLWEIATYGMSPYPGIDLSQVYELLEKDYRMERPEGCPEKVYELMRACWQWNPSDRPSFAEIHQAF
Experimental: Test for activity against c-Abl protein tyrosine kinase. The test is conducted as a filter binding assay as follows: The His-tagged kinase domain of c-Abl is cloned and expressed in the baculovirus/Sf9 system as described by Bhat et al., J. Biol. Chem. 272, 16170-5 (1997). A protein of 37 kD (c-Abl kinase) is purified by a two-step procedure over a cobalt metal chelate column followed by an anion exchange column with a yield of 1-2 mg/L of Sf9 cells. The purity of the c-Abl kinase is >90% as judged by SDS-PAGE after Coomassie blue staining. The assay contains: c-Abl kinase (50 ng), 20 mM Tris.HCl, pH 7.5, 10 mM MgCl2, 10 μM Na3VO4, 1 mM DTT and 0.06 μCi/assay [γ^33 P]-ATP (5 μM ATP) using 30 μg/mL poly-Ala,Glu,Lys,Tyr-6:2:5:1 (Poly-AEKY, Sigma P1152) in the presence of 1% DMSO, total volume of 30 μL. Reactions are terminated by adding 10 μL of 250 mM EDTA, and 30 μL of the reaction mixture is transferred onto Immobilon-PVDF membrane (Millipore, Bedford, Mass., USA) previously soaked for 5 min with methanol, rinsed with water, then soaked for 5 min with 0.5% H3PO4 and mounted on vacuum manifold with disconnected vacuum source. After spotting all samples, vacuum is connected and each well rinsed with 200 μL 0.5% H3PO4. Membranes are removed and washed on a shaker with 0.5% H3PO4 (4 times) and once with ethanol. Membranes are counted after drying at ambient temperature, mounting in Packard TopCount 96-well frame, and addition of 10 μL/well of Microscint™ (Packard).

T1 sequence (P00519 28-1130 limits assumed): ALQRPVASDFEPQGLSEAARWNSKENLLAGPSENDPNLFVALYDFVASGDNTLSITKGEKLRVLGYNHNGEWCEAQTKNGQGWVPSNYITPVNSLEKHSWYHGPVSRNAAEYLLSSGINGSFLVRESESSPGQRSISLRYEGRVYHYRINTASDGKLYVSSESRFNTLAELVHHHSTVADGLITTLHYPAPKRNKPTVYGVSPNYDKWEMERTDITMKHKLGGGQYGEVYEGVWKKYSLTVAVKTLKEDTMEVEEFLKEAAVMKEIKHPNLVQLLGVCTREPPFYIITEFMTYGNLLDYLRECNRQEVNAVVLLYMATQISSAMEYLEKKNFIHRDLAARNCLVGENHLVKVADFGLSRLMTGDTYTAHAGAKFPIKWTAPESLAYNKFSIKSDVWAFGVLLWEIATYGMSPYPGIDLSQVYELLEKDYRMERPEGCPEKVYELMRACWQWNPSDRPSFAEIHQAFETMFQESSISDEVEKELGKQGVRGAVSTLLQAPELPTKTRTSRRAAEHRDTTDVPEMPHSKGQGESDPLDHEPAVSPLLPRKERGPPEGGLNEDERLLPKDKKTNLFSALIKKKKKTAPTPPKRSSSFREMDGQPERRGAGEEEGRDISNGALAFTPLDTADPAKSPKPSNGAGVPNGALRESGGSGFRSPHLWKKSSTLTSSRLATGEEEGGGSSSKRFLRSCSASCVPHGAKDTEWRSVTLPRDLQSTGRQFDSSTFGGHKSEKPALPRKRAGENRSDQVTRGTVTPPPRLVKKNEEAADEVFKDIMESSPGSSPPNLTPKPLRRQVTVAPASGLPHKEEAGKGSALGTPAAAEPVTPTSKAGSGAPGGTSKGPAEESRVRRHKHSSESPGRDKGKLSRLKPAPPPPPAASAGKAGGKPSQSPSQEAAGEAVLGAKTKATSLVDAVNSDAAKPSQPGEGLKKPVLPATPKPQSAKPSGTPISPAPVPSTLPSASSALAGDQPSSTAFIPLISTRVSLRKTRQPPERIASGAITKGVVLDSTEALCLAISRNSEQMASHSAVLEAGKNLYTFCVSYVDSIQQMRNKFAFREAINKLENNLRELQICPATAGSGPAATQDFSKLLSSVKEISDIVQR

Molecule	IC50 (Bcr-Abl) [nM]	IC50 (c-Abl) [nM]
CCCNc1ncnc2[nH]c(-c3ccc(C(=O)N4CCN(C)CC4)cc3)cc12 [Example 17, (4-Methyl-piperazin-1-yl)-[4-(4-propylamino-7H-pyrrolo[2,3-d]pyrimidin-6-yl)-phenyl]-methanone]	1630	5
CN(C)c1ncnc2[nH]c(-c3ccc(CNCCCO)cc3)cc12 [Example 28, 3-[4-(4-Dimethylamino-7H-pyrrolo[2,3-d]pyrimidin-6-yl)-benzylamino]-propan-1-ol]	409	
CN1CCN(C(=O)c2ccc(-c3cc4c(N(C)C)ncnc4[nH]3)cc2)CC1 [Example 3, [4-(4-Dimethylamino-7H-pyrrolo[2,3-d]pyrimidin-6-yl)-phenyl]-(4-methyl-piperazin-1-yl)-methanone]	797	19
CN1CCN(Cc2ccc(-c3cc4c(N(C)C)ncnc4[nH]3)cc2)CC1 [Example 4, Dimethyl-{6-[4-(4-methyl-piperazin-1-ylmethyl)-phenyl]-7H-pyrrolo[2,3-d]pyrimidin-4-yl}-amine]	729	32
CCCN(C)c1ncnc2[nH]c(-c3ccc(CN4CCN(C)CC4)cc3)cc12 [Example 19, Methyl-{6-[4-(4-methyl-piperazin-1-ylmethyl)-phenyl]-7H-pyrrolo[2,3-d]pyrimidin-4-yl}-propyl-amine]	2070	11
CNc1ncnc2[nH]c(-c3ccc(C(C)(C)O)cc3)cc12 [Example 35, 2-[4-(4-Methylamino-7H-pyrrolo[2,3-d]pyrimidin-6-yl)-phenyl]-propan-2-ol]		10
COCCN(C)Cc1ccc(-c2cc3c(N(C)C)ncnc3[nH]2)cc1 [Example 29, [6-(4-{[(2-Methoxy-ethyl)-methyl-amino]-methyl}-phenyl)-7H-pyrrolo[2,3-d]pyrimidin-4-yl]-dimethyl-amine]	274	
CCC(O)(CC)c1ccc(-c2cc3c(NCCCn4cccc4)ncnc3[nH]2)cc1 [Example 33, 3-{4-[4-(3-Pyrrol-1-yl-propylamino)-7H-pyrrolo[2,3-d]pyrimidin-6-yl]-phenyl}-pentan-3-ol]	2430	130
CN(C)c1ncnc2[nH]c(-c3ccc(Cn4ccnc4)cc3)cc12 [Example 24, [6-(4-Imidazol-1-ylmethyl-phenyl)-7H-pyrrolo[2,3-d]pyrimidin-4-yl]-dimethylamine]	790	11
CCCNc1ncnc2[nH]c(-c3ccc(CN4CCN(C)CC4)cc3)cc12 [Example 18, {6-[4-(4-Methyl-piperazin-1-ylmethyl)-phenyl]-7H-pyrrolo[2,3-d]pyrimidin-4-yl}-propyl-amine]	939	6
[4-(4-Methylamino-7H-pyrrolo[2,3-d]pyrimidin-6-yl)-phenyl]-morpholin-4-yl-methanone [Example 2]	292	35
CCN(CC)CCCNC(=O)c1ccc(-c2cc3c(N(C)C)ncnc3[nH]2)cc1 [Example 5, N-(3-Diethylamino-propyl)-4-(4-dimethylamino-7H-pyrrolo[2,3-d]pyrimidin-6-yl)-benzamide]		21
CNc1ncnc2[nH]c(-c3ccc(C(=O)N4CCN(C)CC4)cc3)cc12 [Example 12, [4-(4-Methylamino-7H-pyrrolo[2,3-d]pyrimidin-6-yl)-phenyl]-(4-methyl-piperazin-1-yl)-methanone]		4

The remaining lines, values ahead:

IC50 (Bcr-Abl) [nM]	IC50 (c-Abl) [nM]	Molecule
	14	CN1CCN(C(=O)c2ccc(-c3cc4c(NCCCO)ncnc4[nH]3)cc2)CC1 [Example 15, {4-[4-(3-Hydroxy-propylamino)-7H-pyrrolo[2,3-d]pyrimidin-6-yl]-phenyl}-(4-methyl-piperazin-1-yl)-methanone]
944	21	CN(C)c1ncnc2[nH]c(-c3ccc(C(C)(C)O)cc3)cc12 [Example 34, 2-[4-(4-Dimethylamino-7H-pyrrolo[2,3-d]pyrimidin-6-yl)-phenyl]-propan-2-ol]
≥ 10000	9	CN(C)c1ncnc2[nH]c(-c3ccc(Cc4ccc[nH]4)cc3)cc12 [Example 25, Dimethyl-{6-[4-(1H-pyrrol-2-ylmethyl)-phenyl]-7H-pyrrolo[2,3-d]pyrimidin-4-yl}-amine]
917	25	CN(C)c1ncnc2[nH]c(-c3ccc(C(=O)NCCCN4CCOCC4)cc3)cc12 [Example 7, 4-(4-Dimethylamino-7H-pyrrolo[2,3-d]pyrimidin-6-yl)-N-(3-morpholin-4-yl-propyl)-benzamide]
935	2.6	CN(C)c1ncnc2[nH]c(-c3ccc(C(=O)N4CCOCC4)cc3)cc12 [Example 6, [4-(4-Dimethylamino-7H-pyrrolo[2,3-d]pyrimidin-6-yl)-phenyl]-morpholin-4-yl-methanone]
903	10	CN(C)c1ncnc2[nH]c(-c3ccc(Cn4cnnn4)cc3)cc12 [Example 27, Dimethyl-[6-(4-tetrazol-1-ylmethyl-phenyl)-7H-pyrrolo[2,3-d]pyrimidin-4-yl]-amine]
50.8	11	CNc1ncnc2[nH]c(-c3ccc(CN4CCN(C)CC4)cc3)cc12 [Example 16, Methyl-{6-[4-(4-methyl-piperazin-1-ylmethyl)-phenyl]-7H-pyrrolo[2,3-d]pyrimidin-4-yl}-amine]

Source: patent publication US7625894B2, “Pyrrolo[2,3-d]Pyrimidines as Protein Tyrosine Kinase Inhibitors” (Novartis AG, priority 2004, dated 2009)
